Measured values: PubChem BioAssay (NCI)
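Growth conditions: 96-well plates. Treatment: test compound, 48 hours, 5 concentrations. Analysis: linear interpolation between bracketing concentrations; unreached endpoints set to highest concentration. TGI denotes the concentration required for complete inhibition of growth.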

What was measured:
Assay in all cases: inhibition of tumour cell growth, NCI panel, 48 h
786-0 renal = system: 786-0 renal
A498 renal = system: A498 renal
A549 NSCLC = system: A549 NSCLC
ACHN renal = system: ACHN renal
COLO 205 colon = system: COLO 205 colon
DLD-1 colon = system: DLD-1 colon
DMS 114 small cell lung = system: DMS 114 small cell lung
EKVX NSCLC = system: EKVX NSCLC
HCC-2998 colon = system: HCC-2998 colon
HCT-116 colon = system: HCT-116 colon
HCT-15 colon = system: HCT-15 colon
HL-60(TB) leukemia = system: HL-60(TB) leukemia
HOP-18 NSCLC = system: HOP-18 NSCLC
HOP-62 NSCLC = system: HOP-62 NSCLC
HOP-92 NSCLC = system: HOP-92 NSCLC
HT29 colon = system: HT29 colon
IGROV1 ovarian = system: IGROV1 ovarian
KM12 colon = system: KM12 colon
KM20L2 colon = system: KM20L2 colon
LXFL 529 NSCLC = system: LXFL 529 NSCLC
M14 melanoma = system: M14 melanoma
M19-MEL melanoma = system: M19-MEL melanoma
MALME-3M melanoma = system: MALME-3M melanoma
NCI-H23 lung = system: NCI-H23 lung
NCI-H460 lung = system: NCI-H460 lung
NCI-H522 lung = system: NCI-H522 lung
OVCAR-3 ovarian = system: OVCAR-3 ovarian
OVCAR-4 ovarian = system: OVCAR-4 ovarian
OVCAR-5 ovarian = system: OVCAR-5 ovarian
OVCAR-8 ovarian = system: OVCAR-8 ovarian
RXF 393 renal = system: RXF 393 renal
SF-268 CNS = system: SF-268 CNS
SF-295 CNS = system: SF-295 CNS
SF-539 CNS = system: SF-539 CNS
SK-MEL-2 melanoma = system: SK-MEL-2 melanoma
SK-MEL-28 melanoma = system: SK-MEL-28 melanoma
SK-MEL-5 melanoma = system: SK-MEL-5 melanoma
SN12C renal = system: SN12C renal
SNB-19 CNS = system: SNB-19 CNS
SNB-78 CNS = system: SNB-78 CNS
SR leukemia = system: SR leukemia
SW-620 colon = system: SW-620 colon
TK-10 renal = system: TK-10 renal
U251 CNS = system: U251 CNS
UACC-257 melanoma = system: UACC-257 melanoma
UACC-62 melanoma = system: UACC-62 melanoma
UO-31 renal = system: UO-31 renal
CAKI-1 renal = system: CAKI-1 renal
CCRF-CEM leukemia = system: CCRF-CEM leukemia
DMS 273 small cell lung = system: DMS 273 small cell lung
K-562 leukemia = system: K-562 leukemia
MOLT-4 leukemia = system: MOLT-4 leukemia
NCI-H226 lung = system: NCI-H226 lung
RPMI-8226 leukemia = system: RPMI-8226 leukemia
SK-OV-3 ovarian = system: SK-OV-3 ovarian
SNB-75 CNS = system: SNB-75 CNS

Measured: TGI

NNC(=S)N/N=C(\CCCC(=O)NCCc1ccccc1)CC(=O)c1ccccc1
not listed: CAKI-1 renal | CCRF-CEM leukemia | DMS 273 small cell lung | K-562 leukemia | MOLT-4 leukemia | NCI-H226 lung | RPMI-8226 leukemia | SK-OV-3 ovarian | SNB-75 CNS
> 100 µM: all other assays above

Cc1c2cc(Cl)ccc2n2c(=O)c3ccccc3[nH]c(=O)c12
not listed: A498 renal | A549 NSCLC | ACHN renal | EKVX NSCLC | HCT-15 colon | HL-60(TB) leukemia | HOP-18 NSCLC | HT29 colon | KM12 colon | KM20L2 colon | NCI-H460 lung | OVCAR-3 ovarian | OVCAR-5 ovarian | OVCAR-8 ovarian | RXF 393 renal | SF-295 CNS | SK-MEL-5 melanoma | SN12C renal | SNB-19 CNS | SW-620 colon | TK-10 renal | U251 CNS | UACC-257 melanoma
> 100 µM: all other assays above
